Reference: US20070077583A1, “Alpha enolase-directed diagnostics and therapeutics for cancer and chemotherapeutic drug resistance” (Aurelium BioPharma, Inc., priority 2005, published 2007)

What was measured:
H460 cells = assay: MTT cytotoxicity assay, H460 cells transfected with α-enolase siRNA; format: cell-based, human
Protocol: To establish the effectiveness of α-enolase silencing on other cancer cell types, H460 non-small cell lung cancer cells were challenged with a chemotherapeutic drug, MTT cytotoxicity assays were carried out and survival curves plotted as shown in FIG. 17.

MDA-435 cells [1] = assay: cells; format: cell-based, human
Protocol: Similar tests utilizing α-enolase siRNA were performed on MDA-435 breast adenocarcinoma cells. Chemosensitivity to various drugs was determined for the MDA-435 cells as described above.

MCF-7 cells = assay: Clonogenic assay, MCF-7 cells; format: cell-based, human; settings: adriamycin-resistant MCF-7 cells, without drug
Protocol: Utilizing a clonogenic assay generated additional information concerning cell viability after drug-resistant cells were exposed to siRNA and chemotherapeutics. […] Taxol or Vincristine was added at IC10 or IC50 concentrations determined from MTT experiments for MCF-7 cells. […] The cells were further incubated for an additional 7 days. At the end of the incubation, the cells were stained with addition of a 0.5% Methylene Blue solution in 50% ethanol for 15 min. at RT. The staining solution was then removed and plates were dried overnight. The plates were scanned and the stained colonies were solubilized in 0.1% SDS. The absorbance of the resulting solution was determined by spectrophotometry at 660 nm.

[2] = system: MCF-7 and MDA-231 breast cancer cells; assay: BrdU incorporation cell proliferation assay, MCF-7 and MDA-231; format: cell-based, human; settings: MCF-7 and MDA-231 cells
Protocol: A determinant of cell division and viability, pre-requisites for angiogenesis, was assayed by BrdU incorporation in two breast cancer cell lines.

[3] = system: MDA-435 breast cancer cells; assay: BrdU incorporation DNA synthesis, MDA-435; format: cell-based, human; settings: MDA-435 cells
Description: (§1) The effect of Eno-1 siRNA silencing on tumor cell growth was even more dramatic in the MDA-435 breast cancer cells, where the viability in cells that were transfected with Eno-1 siRNA dropped to only about 17% of the control level (FIG. 40). In these cells the levels of silencing of α-enolase were also quite high, reaching 14% of the α-enolase levels present in the control transfected cells 6 days post-transfection (FIG. 41).

A549 cells [4] = assay: Transwell filter cell invasion assay, A549; format: cell-based, human
Protocol: Transwell filter chamber assays were performed using a Chemicon QCM 96-well invasion kit according to the manufacturer's instructions (Chemicon International, Inc., Temecula, Calif.). Eno-1 and control siRNA transfected cells were harvested 2 days post-transfection, resuspended in media without serum and seeded in 96-well Matrigel-coated transwell filter plates at 50,000 cells per well. Medium with 10% serum was used as a chemo-attractant in a feeder tray. The inserts were placed into the feeder tray, and the cells were subsequently incubated for 16 hours at 37° C. in an incubator containing a 5% CO2 atmosphere. Cells that invaded through the filter to the bottom tray were quantitated using the CyQUANT-GR dye according to the manufacturer's instructions (Molecular Probes, Eugene, Oreg.).
These assays test the ability of a cell to move across membranes, which is a hallmark of metastatic potential. To confirm the results shown in FIGS. 27A and 27B, the highly metastatic cell line MDA-MB-435 was transfected with a vector expressing the α-enolase siRNA and subjected to the transwell filter assay (FIGS. 28 and 29, respectively).

A549 cells [5] = assay: Cell adhesion assay on collagen-coated plates; format: cell-based, human; settings: A549 cells vs normal α-enolase levels
Protocol: Cell adhesion assays were performed using an MTT-based cell assay, as described in FIGS. 8C and 8D. […] The attachment of cells to the surface of the well was counted and a proportion of cells that attached to the surface during the experimental period was determined.

MDA-435 cells [6] = assay: Annexin-V FITC staining, MDA-435; format: cell-based, human
Protocol: as §1
Apoptotic cells were measured following incubation with siRNAs. This assay was performed to determine the number of cells that were now susceptible to chemotherapeutic drugs. Cells transfected with siRNA were seeded in Lab-Tek 16-well chamber slides (Electron Microscopy Sciences, Hatfield, Pa.) at 10^4 cells/well 48 hrs post-transfection. Apoptosis was determined 16 hours later by annexin-V staining using the Annexin-V FLUOS kit (Roche, Ltd., Basel, CH) following the manufacturer's instructions. Slides were observed under a fluorescence microscope and images were taken using an Olympus digital camera and the Q-Capture software (QImaging, Burnaby, BC, CA).

[7] = system: Detroit skin, Hfl fetal lung, and MRC-5 fetal lung fibroblast cell lines; assay: MTT survival of normal fibroblast cells after α-enolase silencing; format: cell-based; settings: relative to mock or control siRNA
Protocol: Detroit skin, Hfl fetal lung, and MRC-5 fetal lung fibroblast cell lines were treated with α-enolase-targeted siRNA as described in Example 5.

A549 cells [8] = assay: MTT cytotoxicity assay, A549 cells transfected with α-enolase siRNA; settings: A549 cells
Protocol: Small interfering RNA transfected cells were seeded in triplicate into 96-well plates at 5×10^3 cells/well 48 hrs post-transfection. The cells were incubated for an additional 16-24 hrs before they were exposed to increasing concentrations of cytotoxic drugs. […] Appropriate dilutions were made in the respective media for each cell line. Following addition of drugs, incubation was continued for an additional 72 hrs. Twenty-five ml of MTT dye (5 mg/ml) were added into each well and the plate was further incubated at 37° C. for 4 hrs. The dye was solubilized with 10% Triton X-100, 0.01 N HCl and further incubated at 37° C. in the dark for 30 min. Cell viability was determined by measure of absorption at 570 nm in a Wallac multiwell plate reader (PerkinElmer, Inc., Boston, Mass.). The averages of triplicate wells were plotted using the Prism software (GraphPad Software, Inc., San Diego, Calif.).
To investigate if α-enolase is broadly involved in mediating drug resistance to microtubule targeting agents, non-small cell lung cancer cell lines A549 and H460, respectively, were transfected with α-enolase siRNA and enolase expression and viability were assessed.

α-enolase siRNA: siRNA duplex targeting human α-enolase mRNA; sense 5′-GGCUGUUGAGCACAUCAAUtt-3′ (SEQ ID NO: 1), antisense SEQ ID NO: 2; Ambion (antisense AUUGAUGUGCUCAACAGCC; bought from Ambion, sense has tt overhang, further chemistry not given here)
cell viability after siRNA alone (H460 cells): less viable | cell viability, of the control level (MDA-435 cells [1]): about 17% | viability less than that of siRNA untreated cells (MCF-7 cells): 65% | decrease in cell proliferation rates (BrdU) [2]: 40-50% | decrease in DNA synthesis [3]: 50% | invasion across membranes (A549 cells [4]): reduced the invasion | increase of cell adhesion to collagen-coated plates (A549 cells [5]): 40% | apoptosis by annexin-V FITC staining (MDA-435 cells [6]): increase in apoptosis | survival of normal fibroblast cells [7]: no effect on survival | cell viability after siRNA alone (A549 cells [8]): decreased the viability
